These results are taken from US7879792B2, “Synthetic peptide inhibitors of thrombin and thrombin activation of protease activated receptors 1 and 4” (The Regents of the University of Michigan, priority 2005, dated 2011).

The target in one test is thrombin (Homo sapiens, UniProt P00734). The following applies: read-out: Ki, retrobinders to the active site of thrombin; cited from earlier work.
Test [1] relates to γ-thrombin-induced platelet aggregation. Kind of test: γ-thrombin-induced platelet aggregation in human platelet-rich plasma. In kind it is cell-based. The protocol:
Fresh whole blood was collected and mixed with 0.013 M sodium citrate and platelet-rich plasma was prepared according to the method of Meloni et al., J. Biol. Chem. 266, 6786 (1991). Platelet-rich plasma with a normalized platelet count between 2-2.5×10^8 platelets/ml was added to a cuvette of an aggregometer (Chronlog Corp., Havertown, Pa.), standardized using the protocol of Meloni et al., supra. Peptides to be examined were added to the cuvette and the mixture stabilized for a few moments. Once the baseline was stabilized, γ-thrombin (10-70 nM) (Haematologic Technologies, Essex Junction, Vt.) was added to determine the minimal concentration of the agonist necessary to achieve full platelet aggregation. All investigations with peptides were performed using threshold concentrations of γ-thrombin. Aggregation was allowed to proceed for 5 minutes before stopping.
Table III is a tabulation of the library of peptides prepared and their influence on γ-thrombin-induced platelet aggregation in platelet-rich plasma. […] The numbers in the column represent the minimal concentration (mM) of the peptide that blocked 100% γ-thrombin-induced platelet aggregation of platelets in human platelet-rich plasma.
Human platelet samples were stimulated with 40 nM human gamma thrombin in each experiment.

For another test, the target named is γ-thrombin. Kind of test: inhibition of γ-thrombin hydrolysis of chromogenic substrate. The following applies: read-out: Ki (μM) + SD, γIIa (2 nM); gamma-thrombin 2 nM, Sar-Pro-Arg-paranitroanilide. In kind it is biochemical, human.
Test [2] concerns normal human lung fibroblasts (NHLF). As to the kind of experiment: α-thrombin-induced calcium mobilization in normal human lung fibroblasts. In kind it is cell-based. The note with it: 2 nM alpha thrombin. The protocol: The second assay developed to assess peptides from the combinatorial libraries uses inhibition of α-thrombin-induced calcium mobilization in fibroblasts. Normal human lung fibroblasts (NHLF) were purchased from Clonetics, San Diego, Calif., an affiliate of Bio-Wittaker, Walkersville, Md. The cytoplasmic free Ca^2+ concentration ([Ca^2+]i) was measured using the fluorescent Ca^2+ indicator fura-2 (Molecular Probes, Inc., Eugene, Oreg.). Suspension of fibroblasts in Hepes-Tyrode's buffer were loaded with fura-2 by incubation at 37° C. with 2 μM fura-2/acetoxymethyl ester for 45 minutes according to the method of Rasmussen et al., J. Biol. Chem. 268, 14322 (1993). The labeled fibroblasts were separated from excess probe by washing by centrifugation at 1000 rpm (180 xg). Aliquots of the labeled fibroblasts were transferred into a quartz cuvette with a magnetic stirrer, which was then placed in a thermostatically controlled chamber at 37° C. in a fluorescence spectrophotometer (Perkin-Elmer LS50B spectrofluorometer, Chicago, Ill.). Reagents, test peptide, and α-thrombin (0.25-2 nM), were sequentially added directly to the cuvette. The excitation wavelengths varied between 340 and 380 nm. Fluorescence was measured by recording emitted light at 510 nm as reported by Fisher et al., Mol Pharm. 35, 195 (1989). The minimum emission was determined on a solubilized fibroblast sample in the presence of 10 mM EDTA; maximum emission was determined on the same sample with 10 mM Ca^2+ added. The intrafibroblast free Ca^2+ concentration was calculated by the method of Grykiewicz et al., J. Biol. Chem. 260, 3440 (1985). The ratio of the fluorescence readings was calculated as R=340/380 nm and processed according to the equation [Ca^2+]i=KD((R−Rmin)/Rmax−R))(Sf2/Sb2) to determine the intrafibroblast free Ca^2+ concentration. The KD for fura-2 was assumed to be 224 nM. Rmax and Rmin are the maximum and minimum fluorescence ratios measured at the end of the experiment, respectively; Sf2 and Sb2 are the fluorescence values at 380 nm in the absence and presence of saturating [Ca^2+], respectively. The reaction was monitored for 3-5 minutes.
A general note: Calcium flux is commonly read through the fluorescence of an indicator in the cells.

The next test relates to C57BL6 mice. As to the kind of experiment: Rose Bengal model for arterial thrombosis, time to carotid artery occlusion. The note with it: 0.4 to 1.61 mg/kg IP. In kind it is in vivo, mouse. An excerpt: C57BL6 mice 6 to 16 weeks of age were anesthetized by intraperitoneal injection with sodium pentobarbital and placed in the supine position on a dissecting microscope (Nikon SMZ-2T, Mager Scientific, Inc., Dexter, Mich.). A midline surgical incision was made to expose the right common carotid artery and a Doppler flow probe (Model 0.5 VB, Transonic Systems, Ithaca, N.Y.) is placed under the vessel. The probe was connected to a flowmeter (Transonic Model T106) and was interpreted with a computerized data acquisition program (Windaq, DATAQ Instruments, Arkron, Ohio). Rose Bengal (4,5,6,7-tetrachloro-3′,6-dihydroxy-2,4,5,7-tetraiodospiro(isobenzofuran-1(3H), 9 [9H] xanthan)-3-1 dipotassium salt) (Fisher Scientific, Fair Lawn, N.J.) at 50 mg/kg in 0.9% saline) was then injected into the tail vein in a 0.12 ml volume (Eitzman et al., Blood 95, 577 (2000)). After injection into the tail vein, a green laser light (Melles Griot, Carlsbad, Calif.) at a wavelength of 540 nm was applied 6 cm from the carotid artery. Flow is monitored continuously from the onset of injury. The time to occlusion was determined only after the vessel remained closed with a cessation of blood flow for 20 min. […] These investigations indicate that these compounds are able to prevent thrombosis in the whole animal in vivo.

In another test the target is human α-thrombin (Homo sapiens, UniProt P00734). Kind of test: inhibition of α-thrombin hydrolysis of chromogenic substrate. In kind it is biochemical. The following applies: Ki (μM) + SD, αIIa (2 nM), alpha-thrombin 2 nM, Sar-Pro-Arg-paranitroanilide.

“Also recorded” adds a separate entry of the source. Where a SMILES comes first, the peptide text is derived from it.

The Ki is a measure of affinity in units of concentration, obtained from inhibition or displacement. In the case of “β-Ala-Lys-2Lys-4(Arg-Pro-Pro-Gly-Phe) [MAP4-RPPGF]”, the inhibition constant (Ki) at thrombin was 1750 µM.
For `Cc1ccc(C[C@H](NC(=O)[C@@H](CO)NC(=O)[C@@H]2CCCN2C(=O)[C@@H]2C[C@@H]3CCCC[C@@H]3N2C(=O)[C@H](N)CCCNC(=N)N)C(N)=O)cc1` [rOicPsF(p-Me), D-Arg-Oic-Pro-D-Ser-Phe(p-Me)] (HELM PEPTIDE1{[dR].[O=C([C@@H]1C[C@@H]2CCCC[C@@H]2N1[*:1])[*:2]].P.[dS].[Cc1ccc(C[C@H](N[*:1])C(=O)[*:2])cc1].[am]}$$$$V2.0), the “Concentration of Peptide [mM] That Gives 100% Inhibition” value in test [1] (40 nM human gamma thrombin, human platelet-rich plasma) turned out to be 0.016 mM. Further, in test [1] (40 nM γ-thrombin), the “concentration that abolished γ-thrombin-induced platelet aggregation” value was 16 µM. Moreover, the Ki on γ-thrombin is 42.2 ± 6 µM; at human α-thrombin, 6.4 to 10.6 µM. Besides, in test [2] (0.00038 mM peptide), the “alpha thrombin-induced calcium mobilization” value is recorded as “full recovery”. For the same molecule, the “inhibition of thrombin-induced calcium mobilization” value in test [2] (0.003 mM peptide) is on record as 59%; in test [2] (0.08 mM peptide), 97%. The “time to occlusion of the mouse right carotid artery” value in the test with C57BL6 mice is recorded as “significant prolongation; also recorded: prolonged”.
